Data on four compounds can be found in ChEMBL document CHEMBL5365432, “Anticancer Activities of DNA-Alkylating Pyrrole-Imidazole Polyamide Analogs Targeting RUNX Transcription Factors against p53-Mutated Pancreatic Cancer PANC-1 Cells” (J Med Chem, 2023).

The test system of series [1] is DNA. As to the kind of experiment: Binding affinity to DNA (unknown origin) assessed as DNA alkylation at RUNX-binding site at 150 uM incubated for 18 hrs by HPLC analysis. Format: nucleic-acid assay.
The subject of series [2] is DNA. As to the kind of experiment: Binding affinity to DNA (unknown origin) assessed as formation of DNA alkylation product at 150 uM incubated for 18 hrs measured after 20 mins by HPLC/MALDI-TOF MS analysis. Format: nucleic-acid assay. To be noted: time 18.33 hrs.
Series [3] has as its system PANC-1. As to the kind of experiment: Induction of apoptosis in human PANC-1 cells assessed as late apoptotic cells at 3 uM incubated for 72 hrs by Annexin V-FITC/PI staining based flow cytometry (reference value: 2.9 %). In kind it is functional.
In series [4] the test system is PANC-1. As to the kind of experiment: Induction of apoptosis in human PANC-1 cells assessed as increase in phosphorylated p53 protein level at S392 residue at 3 uM incubated for 72 hrs by proteomic profiling array. In kind it is functional, cell-based.
Series [5] concerns PANC-1. As to the kind of experiment: Induction of apoptosis in human PANC-1 cells assessed as upregulation of TAp63 mRNA level at 3 uM incubated for 48 hrs by RT-qPCR analysis. In kind it is functional, cell-based.
For series [6], the system named is PANC-1. In words: Induction of apoptosis in human PANC-1 cells assessed as viable cells at 3 uM incubated for 72 hrs by Annexin V-FITC/PI staining based flow cytometry (reference value: 94.3 %). The settings on record: read-out: Activity. Format: functional.
Series [7] concerns PANC-1. As to the kind of experiment: Induction of apoptosis in human PANC-1 cells assessed as suppression of BCL11A mRNA level at 3 uM incubated for 48 hrs by RT-qPCR analysis. Format: functional, cell-based.
In series [8] the test system is PANC-1. In words: Anti-cancer activity against human PANC-1 cells xenografted in CB17.Cg-PrkdcscidLystbg-j/CrlCrlj mouse assessed as fold change in tumor volume at 1 mg/kg, iv administered twice a week for 3 weeks relative to gemcitabine. Format: functional.
Series [9] deals with PANC-1. In words: Anti-cancer activity against human PANC-1 cells xenografted in CB17.Cg-PrkdcscidLystbg-j/CrlCrlj mouse assessed as reduction in tumor volume at 5 mg/kg, iv administered twice a week for 3 weeks. Format: functional, organism-based.
The test system of series [10] is PANC-1. As to the kind of experiment: Induction of apoptosis in human PANC-1 cells assessed as increase in phosphorylated p53 protein level at S46 residue at 3 uM incubated for 72 hrs by proteomic profiling array. Format: functional, cell-based.
Series [11] concerns PANC-1. As to the kind of experiment: Induction of apoptosis in human PANC-1 cells assessed as early apoptotic cells at 3 uM incubated for 72 hrs by Annexin V-FITC/PI staining based flow cytometry (reference value: 1.5 %). Format: functional.
In series [12] the test system is PANC-1. As to the kind of experiment: Cytotoxicity against human PANC-1 cells assessed as cell viability at 3 uM incubated for 3 days by colorimetric assay relative to control. Format: functional. To be noted: PANC-1, 72 h, time 3 day, read-out: Activity.
Series [13] can be described thus: Cytotoxicity against human hTERT-HPNE cells assessed as cell viability at 3 uM incubated for 3 days by colorimetric assay relative to control. In kind it is toxicity, cell-based. To be noted: time 3 day, read-out: Activity.
Series [14] is described as follows: Toxicity in CB17.Cg-PrkdcscidLystbg-j/CrlCrlj mouse xenografted with human PANC-1 cells assessed as body weight loss at 5 mg/kg, iv administered twice a week for 3 weeks. In kind it is organism-based. To be noted: in vivo, 504 h.
For series [15], the system named is PANC-1. As to the kind of experiment: Induction of apoptosis in human PANC-1 cells assessed as necrotic cells at 3 uM incubated for 72 hrs by Annexin V-FITC/PI staining based flow cytometry (reference value: 1.2 %). Format: functional.
In series [16] the test system is PANC-1. As to the kind of experiment: Induction of apoptosis in human PANC-1 cells assessed as increase in phosphorylated p53 protein level at S15 residue at 3 uM incubated for 72 hrs by proteomic profiling array. In kind it is functional, cell-based.
Series [17] relates to PANC-1. As to the kind of experiment: Induction of apoptosis in human PANC-1 cells assessed as upregulation of TAp73 mRNA level at 3 uM incubated for 48 hrs by RT-qPCR analysis. Format: functional, cell-based.

Structures are written as SMILES. Activity calls are given as the source filed them. No cut-off for these calls is given here.

As to `CN(C)CCCNC(=O)c1nc(NC(=O)c2cc(NC(=O)c3nc(NC(=O)c4nc(NC(=O)CCCNC(=O)c5cc(NC(=O)c6cc(NC(=O)c7cc(NC(=O)c8cc(NC(=O)CCNC(=O)CCCc9ccc(N(CCCl)CCCl)cc9)cn8C)cn7C)cn6C)cn5C)cn4C)cn3C)cn2C)cn1C`, the result in the series on DNA [1] was inactive. In the series with DNA [2], the outcome was Active.

For the compound `CN(C)CCCNC(=O)c1nc(NC(=O)c2nc(NC(=O)c3cc(NC(=O)c4nc(NC(=O)CCCNC(=O)c5cc(NC(=O)c6cc(NC(=O)c7cc(NC(=O)c8cc(NC(=O)CCNC(=O)CCCc9ccc(N(CCCl)CCCl)cc9)cn8C)cn7C)cn6C)cn5C)cn4C)cn3C)cn2C)cn1C`, the outcome in the series with DNA [1], in the series with PANC-1 [4], in the series with PANC-1 [5], with PANC-1 [7], in the series with PANC-1 [9] and with PANC-1 [10] was Active. Moreover, the outcome in the series with PANC-1 [16], with DNA [2] and in the series with PANC-1 [17] was Active. The Activity in the series on PANC-1 [3] is listed as 9.1%; with PANC-1 [11], 10.8%; in [14] it was “Non-Toxic”; in the series with PANC-1 [15], 1.6%. The viability at 3 µM came to 78.5% with PANC-1 [6] and 85% with PANC-1 [12]. Moreover, in the series with PANC-1 [8], the “fold change (FC)” value amounted to 50. The viability at 72 h, 3 µM in [13] was found to be 82%.

On to `CN(C)CCCNC(=O)c1cc(NC(=O)c2cc(NC(=O)c3cc(NC(=O)c4cc(NC(=O)CCCNC(=O)c5nc(NC(=O)c6cc(NC(=O)c7nc(NC(=O)c8nc(NC(=O)CCNC(=O)CCCc9ccc(N(CCCl)CCCl)cc9)cn8C)cn7C)cn6C)cn5C)cn4C)cn3C)cn2C)cn1C`, for which the outcome in the series with DNA [1], with PANC-1 [4], in the series with PANC-1 [7], in the series with PANC-1 [9], in the series on PANC-1 [10] and with PANC-1 [16] was Active. Moreover, the result in the series with DNA [2] and in the series on PANC-1 [17] was Active. The Activity in the series with PANC-1 [3] is on record as 14%; with PANC-1 [11], 15%; in [14], “Non-Toxic”; with PANC-1 [15], 2.4%. Besides, the outcome in the series with PANC-1 [5] was inactive. The viability at 3 µM in the series with PANC-1 [6] was 68.7%; with PANC-1 [12] it was 67.7%. The “fold change (FC)” value in the series on PANC-1 [8] is 50. The viability at 72 h, 3 µM in series [13] was 73.8%.

For `CN(C)CCCNC(=O)c1cc(NC(=O)c2cc(NC(=O)c3cc(NC(=O)c4cc(NC(=O)CCCNC(=O)c5nc(NC(=O)c6nc(NC(=O)c7cc(NC(=O)c8nc(NC(=O)CCNC(=O)CCCc9ccc(N(CCCl)CCCl)cc9)cn8C)cn7C)cn6C)cn5C)cn4C)cn3C)cn2C)cn1C`, the outcome in the series on DNA [1] and with PANC-1 [5] was inactive. For the same compound, the Activity is reported as 12.4% in the series with PANC-1 [3], 12.5% in the series with PANC-1 [11], “Non-Toxic” in series [14] and 1.9% in the series on PANC-1 [15]. Moreover, the outcome in the series with PANC-1 [4], with PANC-1 [7], in the series with PANC-1 [9], with PANC-1 [10], in the series on PANC-1 [16] and in the series with DNA [2] was Active. For the same compound, in the series on PANC-1 [17], the result was Active. In addition, the values for the viability at 3 µM in the series with PANC-1 [6] and in the series with PANC-1 [12] were 73.1% and 74.7%, respectively. In addition, the viability at 72 h, 3 µM in series [13] worked out at 79.5%.
